Laboratory results as given in patent US11071300B2, “Pesticidally active pyrazole derivatives” (SYNGENTA PARTICIPATIONS AG, priority 2017, dated 2021).
Where two headings read alike, the source gives them in different places.

Columns and labels:
Format in all cases: in vivo
[1] = tested on: Euschistus heros; experiment: Euschistus heros (neotropical brown stink bug) soybean leaf test; conditions: 120 h, read-out: control (mortality and growth inhibition)
Description: Euschistus heros (Neotropical Brown Stink Bug):
Soybean leaves on agar in 24-well microtiter plates were sprayed with aqueous test solutions prepared from 10′000 ppm DMSO stock solutions. After drying the leaves were infested with N2 nymphs. The samples were assessed for mortality and growth inhibition in comparison to untreated samples 5 days after infestation.

[2] = tested on: Spodoptera littoralis; experiment: Spodoptera littoralis (Egyptian cotton leaf worm) leaf disc test; conditions: foliar, 72 h, application rate 200 ppm, cotton leaf discs sprayed, L1 larvae, 3 days after infestation, read-out: control (at least one of mortality, anti-feedant effect, growth inhibition)
In short: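 Cotton leaf discs on agar were sprayed with aqueous dilutions of 10′000 ppm DMSO stocks, dried and infested with five L1 larvae. Mortality, anti-feedant effect and growth inhibition were scored against untreated samples 3 days after infestation. Control = any of these higher than untreated.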

[3] = tested on: Plutella xylostella; experiment: Plutella xylostella (diamond back moth) artificial diet test; conditions: 120 h, read-out: control (mortality and growth inhibition)
Description: Plutella xylostella (Diamond Back Moth):
24-well microtiter plates with artificial diet were treated with aqueous test solutions prepared from 10′000 ppm DMSO stock solutions by pipetting. After drying, the plates were infested with L2 larvae (10 to 15 per well). The samples were assessed for mortality and growth inhibition in comparison to untreated samples 5 days after infestation.

[4] = tested on: Myzus persicae; experiment: Myzus persicae (green peach aphid) leaf disc test; conditions: foliar, 144 h, read-out: control (mortality)
Description: Myzus persicae (Green Peach Aphid):
Sunflower leaf discs were placed on agar in a 24-well microtiter plate and sprayed with test solutions at an application rate of 200 ppm. After drying, the leaf discs were infested with an aphid population of mixed ages. After an incubation period of 6 DAT, samples were checked for mortality.

[5] = tested on: Thrips tabaci; experiment: Thrips tabaci (onion thrips) leaf disc test; conditions: foliar, 144 h, read-out: control (mortality)
Description: Thrips tabaci (Onion Thrips):
Sunflower leaf discs were placed on agar in 24-well microtiter plates and sprayed with aqueous test solutions prepared from 10′000 ppm DMSO stock solutions. After drying the leaf discs were infested with a thrips population of mixed ages. The samples were assessed for mortality 6 days after infestation.

[6] = tested on: Tetranychus urticae; experiment: Tetranychus urticae (two-spotted spider mite) leaf disc test; conditions: foliar, 192 h, read-out: control (mortality on mixed population, mobile stages)
Description: Tetranychus urticae (Two-Spotted Spider Mite):
Bean leaf discs on agar in 24-well microtiter plates were sprayed with aqueous test solutions prepared from 10′000 ppm DMSO stock solutions. After drying the leaf discs were infested with a mite population of mixed ages. The samples were assessed for mortality on mixed population (mobile stages) 8 days after infestation.

[7] = tested on: Diabrotica Balteata; experiment: Diabrotica balteata (corn root worm) maize sprout test; conditions: 96 h, read-out: control (mortality and growth inhibition)
Description: Diabrotica Balteata, (Corn Root Worm)
Maize sprouts, placed on an agar layer in 24-well microtiter plates were treated with aqueous test solutions prepared from 10′000 ppm DMSO stock solutions by spraying. After drying, the plates were infested with L2 larvae (6 to 10 per well). The samples were assessed for mortality and growth inhibition in comparison to untreated samples 4 days after infestation.

[8] = application rate 200 ppm, soybean leaves sprayed, N2 nymphs, 5 days after infestation
[9] = application rate 200 ppm, artificial diet, L2 larvae, 5 days after infestation
[10] = application rate 200 ppm, sunflower leaf discs sprayed, mixed ages, 6 DAT
[11] = application rate 200 ppm, sunflower leaf discs sprayed, mixed ages, 6 days after infestation
[12] = application rate 200 ppm, bean leaf discs sprayed, 8 days after infestation
[13] = application rate 200 ppm, maize sprouts sprayed, L2 larvae, 4 days after infestation

COCC(=O)N(C(=O)c1cc(-c2cnn(-c3c(C(F)(F)F)c(OS(=O)(=O)C(F)(C(F)(F)F)C(F)(F)F)nn3C)c2)ccc1Cl)C1(C#N)CC1 [Compound 62, [5-[4-[4-chloro-3-[(1-cyanocyclopropyl)-(2-methoxyacetyl)carbamoyl]phenyl]pyrazol-1-yl]-1-methyl-4-(trifluoromethyl)pyrazol-3-yl] 1,1,1,2,3,3,3-heptafluoropropane-2-sulfonate]
≥ 80%: mortality at 200 ppm [1, 8] | percent control (mortality, anti-feedant effect or growth inhibition) at 200 ppm [2] | mortality at 200 ppm [3, 9] | mortality at 200 ppm [4, 10] | mortality at 200 ppm [5, 11] | mortality at 200 ppm [6, 12] | mortality at 200 ppm [7, 13]

CN(C(=O)c1cc(-c2cnn(-c3c(C(F)(F)F)c(OS(=O)(=O)C(F)(C(F)(F)F)C(F)(F)F)nn3C)c2)ccc1Cl)C1(C#N)CC1 [Compound 18, [5-[4-[4-chloro-3-[(1-cyanocyclopropyl)-methyl-carbamoyl]phenyl]pyrazol-1-yl]-1-methyl-4-(trifluoromethyl)pyrazol-3-yl] 1,1,1,2,3,3,3-heptafluoropropane-2-sulfonate]
≥ 80%: mortality at 200 ppm [1, 8] | percent control (mortality, anti-feedant effect or growth inhibition) at 200 ppm [2] | mortality at 200 ppm [3, 9] | mortality at 200 ppm [4, 10] | mortality at 200 ppm [5, 11] | mortality at 200 ppm [6, 12] | mortality at 200 ppm [7, 13]

CCN(C(=O)c1cc(-c2cnn(-c3c(C(F)(F)F)c(OS(=O)(=O)C(F)(C(F)(F)F)C(F)(F)F)nn3C)c2)ccc1Cl)C1CC1 [Compound 12, [5-[4-[4-chloro-3-[cyclopropyl(ethyl)carbamoyl]phenyl]pyrazol-1-yl]-1-methyl-4-(trifluoromethyl)pyrazol-3-yl] 1,1,1,2,3,3,3-heptafluoropropane-2-sulfonate]
≥ 80%: mortality at 200 ppm [1, 8] | percent control (mortality, anti-feedant effect or growth inhibition) at 200 ppm [2] | mortality at 200 ppm [3, 9] | mortality at 200 ppm [4, 10] | mortality at 200 ppm [5, 11] | mortality at 200 ppm [6, 12] | mortality at 200 ppm [7, 13]

CCOC(=O)N(C(=O)c1cc(-c2cnn(-c3c(C(F)(F)F)c(OS(=O)(=O)C(F)(C(F)(F)F)C(F)(F)F)nn3C)c2)ccc1Cl)C1(C#N)CC1 [Compound 51, [5-[4-[4-chloro-3-[(1-cyanocyclopropyl)-ethoxycarbonyl-carbamoyl]phenyl]pyrazol-1-yl]-1-methyl-4-(trifluoromethyl)pyrazol-3-yl] 1,1,1,2,3,3,3-heptafluoropropane-2-sulfonate]
≥ 80%: mortality at 200 ppm [1] | percent control (mortality, anti-feedant effect or growth inhibition) at 200 ppm [2] | mortality at 200 ppm [3] | mortality at 200 ppm [4] | mortality at 200 ppm [5] | mortality at 200 ppm [6] | mortality at 200 ppm [7]
